Laboratory results published in ChEMBL document CHEMBL3576856, “Membrane-Targeting DCAP Analogues with Broad-Spectrum Antibiotic Activity against Pathogenic Bacteria” (2015).
Converted amounts (≈) assume the structure as drawn. The source made the active and inactive calls. The calls are words filed in the database; no cut-off is given here.

Assays:
Escherichia coli [1] = experiment: Antimicrobial activity against Escherichia coli BW25113 expressing delta-tolC gene incubated for 16 to 18 hrs by macrodilution method; format: functional
Escherichia coli [2] = experiment: Antimicrobial activity against Escherichia coli BW25113 incubated for 16 to 18 hrs by macrodilution method; format: functional
Francisella tularensis = experiment: Antimicrobial activity against Francisella tularensis incubated for 16 to 18 hrs by macrodilution method; format: functional
Bacillus anthracis = experiment: Antimicrobial activity against Bacillus anthracis incubated for 16 to 18 hrs by macrodilution method; format: functional
Burkholderia mallei = experiment: Antimicrobial activity against Burkholderia mallei incubated for 16 to 18 hrs by macrodilution method; format: functional
Yersinia pestis = experiment: Antimicrobial activity against Yersinia pestis incubated for 16 to 18 hrs by macrodilution method; format: functional
[3] = tested on: Burkholderia pseudomallei; experiment: Antimicrobial activity against Burkholderia pseudomallei incubated for 16 to 18 hrs by macrodilution method; format: functional
Escherichia coli [4] = experiment: Antimicrobial activity against Escherichia coli MG1655 incubated at 37 degC overnight for 18 hrs; format: functional; conditions: MG1655, 18 h
Staphylococcus aureus [5] = experiment: Antimicrobial activity against Staphylococcus aureus incubated at 37 degC overnight for 18 hrs; format: functional
Vibrio cholerae = experiment: Antimicrobial activity against Vibrio cholerae incubated for 16 to 18 hrs by macrodilution method; format: functional
Salmonella typhimurium = experiment: Antimicrobial activity against Salmonella typhimurium incubated for 16 to 18 hrs by macrodilution method; format: functional, Salmonella enterica subsp. enterica serovar Typhimurium; conditions: Salmonella enterica
Shigella boydii = experiment: Antimicrobial activity against Shigella boydii incubated for 16 to 18 hrs by macrodilution method; format: functional
Edwardsiella tarda = experiment: Antimicrobial activity against Edwardsiella tarda incubated for 16 to 18 hrs by macrodilution method; format: functional
Klebsiella pneumoniae = experiment: Antimicrobial activity against Klebsiella pneumoniae incubated for 16 to 18 hrs by macrodilution method; format: functional
Klebsiella aerogenes = experiment: Antimicrobial activity against Enterobacter aerogenes incubated for 16 to 18 hrs by macrodilution method; format: functional
Acinetobacter baumannii = experiment: Antimicrobial activity against Acinetobacter baumannii incubated for 16 to 18 hrs by macrodilution method; format: functional
Morganella morganii = experiment: Antimicrobial activity against Morganella morganii incubated for 16 to 18 hrs by macrodilution method; format: functional
Staphylococcus aureus [6] = experiment: Antimicrobial activity against Staphylococcus aureus Newman incubated for 16 to 18 hrs by macrodilution method; format: functional
Escherichia coli [7] = experiment: Antimicrobial activity against Escherichia coli MG1655 at 2.5 to 80 uM incubated at 37 degC overnight for 18 hrs in presence of ampicillin by checkerboard assay; format: functional, organism-based
Escherichia coli [8] = experiment: Synergistic potentiation of ampicillin-induced antimicrobial effect against Escherichia coli MG1655 at 2.5 to 80 uM incubated at 37 degC overnight for 18 hrs in presence of >4 uM ampicillin by checkerboard assay; format: functional, organism-based
Staphylococcus aureus [9] = experiment: Synergistic potentiation of ampicillin-induced antimicrobial effect against Staphylococcus aureus at 2.5 to 80 uM incubated at 37 degC overnight for 18 hrs in presence of >4 uM ampicillin by checkerboard assay; format: functional, organism-based
Escherichia coli [10] = experiment: Synergistic potentiation of kanamycin-induced antimicrobial effect against Escherichia coli MG1655 at 2.5 to 80 uM incubated at 37 degC overnight for 18 hrs in presence of >4 uM kanamycin by checkerboard assay; format: functional, organism-based
Staphylococcus aureus [11] = experiment: Potentiation of kanamycin-induced antimicrobial effect against Staphylococcus aureus at 2.5 to 80 uM incubated at 37 degC overnight for 18 hrs in presence of kanamycin by checkerboard assay; format: functional, organism-based
Escherichia coli [12] = experiment: Potentiation of novobiocin-induced antimicrobial effect against Escherichia coli MG1655 at 2.5 to 80 uM incubated at 37 degC overnight for 18 hrs in presence of novobiocin by checkerboard assay; format: functional, organism-based

CC(C)(C)NCC(O)Cn1c2ccc(Cl)cc2c2cc(Cl)ccc21 (stereo not drawn)
MIC (Escherichia coli [1]): 40 µM (≈ 14.6 µg/mL) | MIC (Escherichia coli [2]): 160 µM (≈ 58.4 µg/mL)

OCC(CO)(CO)NC[C@H](O)Cn1c2ccc(Cl)cc2c2cc(Cl)ccc21
MIC (Escherichia coli [1]): 20 µM (≈ 8.27 µg/mL) | MIC (Escherichia coli [2]): 80 µM (≈ 33.1 µg/mL) | MIC50 (Francisella tularensis): 85 µM (≈ 35.1 µg/mL) | MIC90 (Francisella tularensis): 170 µM (≈ 70.3 µg/mL) | MIC50 (Bacillus anthracis): 42 µM (≈ 17.4 µg/mL) | MIC90 (Bacillus anthracis): 42 µM (≈ 17.4 µg/mL) | MIC50 (Burkholderia mallei): ≥ 170 µM | MIC90 (Burkholderia mallei): ≥ 170 µM | MIC50 (Yersinia pestis): ≥ 170 µM | MIC90 (Yersinia pestis): ≥ 170 µM | MIC50 [3]: ≥ 170 µM | MIC90 [3]: ≥ 170 µM

OCC(CO)(CO)NCC(O)Cn1c2ccccc2c2ccccc21 (stereo not drawn)
MIC (Escherichia coli [1]): > 80 µM | MIC (Escherichia coli [2]): > 320 µM

CCC(CC)NCC(O)Cn1c2ccc(Cl)cc2c2cc(Cl)ccc21 (stereo not drawn)
MIC (Escherichia coli [1]): 5 µM (≈ 1.9 µg/mL) | MIC (Escherichia coli [2]): 80 µM (≈ 30.3 µg/mL)

NC[C@H]1O[C@H](O[C@H]2[C@H](O)[C@@H](O[C@H]3O[C@H](CO)[C@@H](O)[C@H](N)[C@H]3O)[C@H](N)C[C@@H]2N)[C@H](O)[C@@H](O)[C@@H]1O [KANAMYCIN]
MIC (Escherichia coli [4]): 10 µM (≈ 4.85 µg/mL) | MIC (Staphylococcus aureus [5]): 2.5 µM (≈ 1.21 µg/mL)

CO[C@@H]1[C@@H](OC(N)=O)[C@@H](O)[C@H](Oc2ccc3c(O)c(NC(=O)c4ccc(O)c(CC=C(C)C)c4)c(=O)oc3c2C)OC1(C)C [NOVOBIOCIN]
MIC (Escherichia coli [1]): 1.2 µM (≈ 0.735 µg/mL) | MIC (Escherichia coli [4]): 320 µM (≈ 196 µg/mL)

OCC(CO)(CO)NCC(O)Cn1c2ccc(Cl)cc2c2cc(Cl)ccc21 (racemic)
MIC (Escherichia coli [1]): 20 µM (≈ 8.27 µg/mL) | MIC (Escherichia coli [2]): 80 µM (≈ 33.1 µg/mL) | MIC (Vibrio cholerae): 50 µM (≈ 20.7 µg/mL) | MIC (Salmonella typhimurium): 100 µM (≈ 41.3 µg/mL) | MIC (Shigella boydii): 100 µM (≈ 41.3 µg/mL) | MIC (Edwardsiella tarda): 100 µM (≈ 41.3 µg/mL) | MIC (Klebsiella pneumoniae): 200 µM (≈ 82.7 µg/mL) | MIC (Klebsiella aerogenes): 200 µM (≈ 82.7 µg/mL) | MIC (Acinetobacter baumannii): 200 µM (≈ 82.7 µg/mL) | MIC (Morganella morganii): 200 µM (≈ 82.7 µg/mL) | MIC (Staphylococcus aureus [6]): 40 µM (≈ 16.5 µg/mL)

OCC(CO)(CO)NCC(O)Cn1ccc2cc(Cl)ccc21 (stereo not drawn)
MIC (Escherichia coli [1]): 320 µM (≈ 105 µg/mL) | MIC (Escherichia coli [2]): > 320 µM

CCCCCNCC(O)Cn1c2ccc(Cl)cc2c2cc(Cl)ccc21 (stereo not drawn)
MIC (Escherichia coli [1]): 5 µM (≈ 1.9 µg/mL) | MIC (Escherichia coli [2]): 80 µM (≈ 30.3 µg/mL)

CC(C)CCNCCCn1c2ccc(Cl)cc2c2cc(Cl)ccc21
MIC (Escherichia coli [1]): 5 µM (≈ 1.82 µg/mL) | MIC (Escherichia coli [2]): 80 µM (≈ 29.1 µg/mL)

CCC(CC)CNCC(O)Cn1c2ccc(Cl)cc2c2cc(Cl)ccc21 (stereo not drawn)
MIC (Escherichia coli [1]): 2.5 µM (≈ 0.983 µg/mL) | MIC (Escherichia coli [2]): 80 µM (≈ 31.5 µg/mL) | MIC (Vibrio cholerae): 6.25 µM (≈ 2.46 µg/mL) | MIC (Salmonella typhimurium): 200 µM (≈ 78.7 µg/mL) | MIC (Shigella boydii): 25 µM (≈ 9.83 µg/mL) | MIC (Edwardsiella tarda): 12.5 µM (≈ 4.92 µg/mL) | MIC (Klebsiella pneumoniae): > 200 µM | MIC (Klebsiella aerogenes): > 200 µM | MIC (Acinetobacter baumannii): 25 µM (≈ 9.83 µg/mL) | MIC (Morganella morganii): > 200 µM | MIC (Staphylococcus aureus [6]): 5 µM (≈ 1.97 µg/mL)

CC1(C)S[C@@H]2[C@H](NC(=O)[C@H](N)c3ccccc3)C(=O)N2[C@H]1C(=O)O [AMPICILLIN]
MIC (Escherichia coli [4]): 10 µM (≈ 3.49 µg/mL) | MIC (Staphylococcus aureus [5]): 1 µM (≈ 0.349 µg/mL)

OC(CNC1CCCCC1)Cn1c2ccc(Cl)cc2c2cc(Cl)ccc21 (stereo not drawn)
MIC (Escherichia coli [1]): 2.5 µM (≈ 0.978 µg/mL) | MIC (Escherichia coli [2]): 40 µM (≈ 15.7 µg/mL) | MIC (Vibrio cholerae): 6.25 µM (≈ 2.45 µg/mL) | MIC (Salmonella typhimurium): 100 µM (≈ 39.1 µg/mL) | MIC (Shigella boydii): 50 µM (≈ 19.6 µg/mL) | MIC (Edwardsiella tarda): 50 µM (≈ 19.6 µg/mL) | MIC (Klebsiella pneumoniae): > 200 µM | MIC (Klebsiella aerogenes): > 200 µM | MIC (Acinetobacter baumannii): 25 µM (≈ 9.78 µg/mL) | MIC (Morganella morganii): > 200 µM | MIC (Staphylococcus aureus [6]): 5 µM (≈ 1.96 µg/mL) | MIC50 (Francisella tularensis): 2.5 µM (≈ 0.978 µg/mL) | MIC90 (Francisella tularensis): 10 µM (≈ 3.91 µg/mL) | MIC50 (Bacillus anthracis): 5 µM (≈ 1.96 µg/mL) | MIC90 (Bacillus anthracis): 10 µM (≈ 3.91 µg/mL) | MIC50 (Burkholderia mallei): 21 µM (≈ 8.22 µg/mL) | MIC90 (Burkholderia mallei): 82 µM (≈ 32.1 µg/mL) | MIC50 (Yersinia pestis): 41 µM (≈ 16 µg/mL) | MIC90 (Yersinia pestis): 82 µM (≈ 32.1 µg/mL) | MIC50 [3]: 164 µM (≈ 64.2 µg/mL) | MIC90 [3]: ≥ 164 µM

OCC(CO)(CO)NC[C@@H](O)Cn1c2ccc(Cl)cc2c2cc(Cl)ccc21
MIC (Escherichia coli [1]): 20 µM (≈ 8.27 µg/mL) | MIC (Escherichia coli [2]): 80 µM (≈ 33.1 µg/mL)

CC(C)CCNCC(O)Cn1c2ccc(Cl)cc2c2cc(Cl)ccc21 (stereo not drawn)
MIC (Escherichia coli [1]): 2.5 µM (≈ 0.948 µg/mL) | MIC (Escherichia coli [2]): 40 µM (≈ 15.2 µg/mL) | MIC (Vibrio cholerae): 6.25 µM (≈ 2.37 µg/mL) | MIC (Salmonella typhimurium): 50 µM (≈ 19 µg/mL) | MIC (Shigella boydii): 25 µM (≈ 9.48 µg/mL) | MIC (Edwardsiella tarda): 25 µM (≈ 9.48 µg/mL) | MIC (Klebsiella pneumoniae): 50 µM (≈ 19 µg/mL) | MIC (Klebsiella aerogenes): 50 µM (≈ 19 µg/mL) | MIC (Acinetobacter baumannii): 12.5 µM (≈ 4.74 µg/mL) | MIC (Morganella morganii): 50 µM (≈ 19 µg/mL) | MIC (Staphylococcus aureus [6]): 5 µM (≈ 1.9 µg/mL) | MIC50 (Francisella tularensis): 5 µM (≈ 1.9 µg/mL) | MIC90 (Francisella tularensis): 10 µM (≈ 3.79 µg/mL) | MIC50 (Bacillus anthracis): 5 µM (≈ 1.9 µg/mL) | MIC90 (Bacillus anthracis): 5 µM (≈ 1.9 µg/mL) | MIC50 (Burkholderia mallei): 21 µM (≈ 7.97 µg/mL) | MIC90 (Burkholderia mallei): 42 µM (≈ 15.9 µg/mL) | MIC50 (Yersinia pestis): 21 µM (≈ 7.97 µg/mL) | MIC90 (Yersinia pestis): 42 µM (≈ 15.9 µg/mL) | MIC50 [3]: 170 µM (≈ 64.5 µg/mL) | MIC90 [3]: ≥ 170 µM | Activity (Escherichia coli [7]): Active | Activity (Escherichia coli [8]): Active | Activity (Staphylococcus aureus [9]): Active | Activity (Escherichia coli [10]): Active | Activity (Staphylococcus aureus [11]): inactive | Activity (Escherichia coli [12]): inactive

OCC(CO)NCC(O)Cn1c2ccc(Cl)cc2c2cc(Cl)ccc21 (stereo not drawn)
MIC (Escherichia coli [1]): 20 µM (≈ 7.67 µg/mL) | MIC (Escherichia coli [2]): 40 µM (≈ 15.3 µg/mL)

CCC(CO)(CO)NCC(O)Cn1c2ccc(Cl)cc2c2cc(Cl)ccc21 (stereo not drawn)
MIC (Escherichia coli [1]): 20 µM (≈ 8.23 µg/mL) | MIC (Escherichia coli [2]): 160 µM (≈ 65.8 µg/mL)

CC(CO)(CO)NCC(O)Cn1c2ccc(Cl)cc2c2cc(Cl)ccc21 (stereo not drawn)
MIC (Escherichia coli [1]): 40 µM (≈ 15.9 µg/mL) | MIC (Escherichia coli [2]): 80 µM (≈ 31.8 µg/mL)
